Experiments:
corn = assay: Test B pre/postemergence corn; assay type: in vivo, Zea mays
Procedure, shortened: (§1)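 Test chemicals in a non-phytotoxic solvent mixture with surfactant were sprayed preemergence onto planted seeds and postemergence onto plants 2 to 18 cm tall (1- to 4-leaf stage). After twelve to sixteen days in a greenhouse, injury was visually rated against untreated controls from 0 (no effect) to 10 (complete control).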

blackgrass = assay: Test B pre/postemergence blackgrass; assay type: in vivo, Alopecurus myosuroides
Procedure, shortened: as §1

cocklebur = assay: Test B pre/postemergence cocklebur; assay type: in vivo, Xanthium strumarium
Procedure, shortened: as §1

purple nutsedge = assay: Test B pre/postemergence purple nutsedge; assay type: in vivo, Cyperus rotundus
Procedure, shortened: as §1

crabgrass = assay: Test B pre/postemergence crabgrass; assay type: in vivo, Digitaria sanguinalis
Procedure, shortened: as §1

sugar beet = assay: Test B pre/postemergence sugar beet; assay type: in vivo, Beta vulgaris
Procedure, shortened: as §1

velvetleaf = assay: Test B pre/postemergence velvetleaf; assay type: in vivo, Abutilon theophrasti
Procedure, shortened: as §1

giant foxtail = assay: Test B pre/postemergence giant foxtail; assay type: in vivo, Setaria faberii
Procedure, shortened: as §1

wheat = assay: Test B pre/postemergence wheat; assay type: in vivo, Triticum aestivum
Procedure, shortened: as §1

wild oat = assay: Test B pre/postemergence wild oat; assay type: in vivo, Avena fatua
Procedure, shortened: as §1

rape = assay: Test B pre/postemergence rape; assay type: in vivo, Brassica napus
Procedure, shortened: as §1

soybean = assay: Test B pre/postemergence soybean; assay type: in vivo, Glycine max
Procedure, shortened: as §1

morningglory = assay: Test B pre/postemergence morningglory; assay type: in vivo, Ipomoea hederacea
Procedure, shortened: as §1

bedstraw = assay: Test B pre/postemergence bedstraw; assay type: in vivo, Galium aparine
Procedure, shortened: as §1

surinam grass = assay: Test B pre/postemergence surinam grass; assay type: in vivo, Brachiaria decumbens
Procedure, shortened: as §1

pigweed = assay: Test B pre/postemergence pigweed; assay type: in vivo, Amaranthus retroflexus
Procedure, shortened: as §1

[1] = Postemergence, Rate 62 g/ha, scale 0 to 10, 0 is no effect, 10 is complete control
[2] = Postemergence, Rate 125 g/ha, scale of 0 to 10 where 0 is no effect and 10 is complete control
[3] = Postemergence, Rate 250 g/ha, scale of 0 to 10, 0 is no effect, 10 is complete control
[4] = Postemergence, Rate 500 g/ha, scale of 0 to 10 where 0 is no effect and 10 is complete control
[5] = Preemergence, Rate 62 g/ha, scale of 0 to 10 where 0 is no effect and 10 is complete control
[6] = Preemergence, Rate 250 g/ha, scale 0 to 10 (0 no effect, 10 complete control)
[7] = Preemergence, Rate 500 g/ha, scale of 0 to 10 where 0 is no effect and 10 is complete control
[8] = Preemergence, Rate 125 g/ha, scale of 0 to 10 where 0 is no effect and 10 is complete control

CCCCn1c(=O)on(C(=O)N(c2ccc(F)cc2F)C(C)C)c1=O [Compound 635]
Plant response rating, Corn (corn; [1]): 0
Plant response rating, Corn (corn; [2]): 0
Corn plant response rating (corn; [3]): 0
Plant response rating, Corn (corn; [4]): 2
Corn plant response rating (corn; [5]): 0
Plant response rating, Corn (corn; [6]): 2
Plant response rating, Corn (corn; [7]): 8
Plant response rating, Blackgrass (blackgrass; [1]): 2
Plant response rating, Blackgrass (blackgrass; [2]): 3
Blackgrass plant response rating (blackgrass; [3]): 7
Blackgrass plant response rating (blackgrass; [5]): 9
Plant response rating, Blackgrass (blackgrass; [6]): 9
Plant response rating, Blackgrass (blackgrass; [7]): 8
Plant response rating, Cocklebur (cocklebur; [1]): 2
Plant response rating, Cocklebur (cocklebur; [2]): 2
Cocklebur plant response rating (cocklebur; [3]): 3
Plant response rating, Cocklebur (cocklebur; [4]): 3
Cocklebur plant response rating (cocklebur; [5]): 0
Cocklebur plant response rating (cocklebur; [8]): 0
Plant response rating, Cocklebur (cocklebur; [6]): 0
Plant response rating, Cocklebur (cocklebur; [7]): 0
Plant response rating, Nutsedge (purple nutsedge; [1]): 0
Plant response rating, Nutsedge (purple nutsedge; [2]): 0
Nutsedge plant response rating (purple nutsedge; [5]): 0
Nutsedge plant response rating (purple nutsedge; [8]): 0
Plant response rating, Nutsedge (purple nutsedge; [6]): 3
Plant response rating, Nutsedge (purple nutsedge; [7]): 4
Plant response rating, Crabgrass (crabgrass; [1]): 4
Plant response rating, Crabgrass (crabgrass; [2]): 9
Crabgrass plant response rating (crabgrass; [3]): 8
Plant response rating, Crabgrass (crabgrass; [4]): 9
Crabgrass plant response rating (crabgrass; [5]): 9
Crabgrass plant response rating (crabgrass; [8]): 9
Plant response rating, Crabgrass (crabgrass; [6]): 9
Plant response rating, Crabgrass (crabgrass; [7]): 9
Plant response rating, Sugarbeets (sugar beet; [1]): 3
Plant response rating, Sugarbeets (sugar beet; [2]): 3
Sugarbeets plant response rating (sugar beet; [3]): 7
Sugarbeets plant response rating (sugar beet; [5]): 3
Sugarbeets plant response rating (sugar beet; [8]): 5
Plant response rating, Sugarbeets (sugar beet; [6]): 8
Plant response rating, Sugarbeets (sugar beet; [7]): 9
Plant response rating, Velvetleaf (velvetleaf; [1]): 0
Plant response rating, Velvetleaf (velvetleaf; [2]): 0
Velvetleaf plant response rating (velvetleaf; [3]): 2
Velvetleaf plant response rating (velvetleaf; [5]): 0
Plant response rating, Velvetleaf (velvetleaf; [6]): 3
Plant response rating, Velvetleaf (velvetleaf; [7]): 7
Plant response rating, Giant foxtail (giant foxtail; [1]): 5
Plant response rating, Giant foxtail (giant foxtail; [2]): 8
Giant foxtail plant response rating (giant foxtail; [3]): 8
Plant response rating, Giant foxtail (giant foxtail; [4]): 9
Giant foxtail plant response rating (giant foxtail; [5]): 9
Giant foxtail plant response rating (giant foxtail; [8]): 9
Plant response rating, Giant foxtail (giant foxtail; [6]): 10
Plant response rating, Giant foxtail (giant foxtail; [7]): 10
Plant response rating, Wheat (wheat; [1]): 0
Plant response rating, Wheat (wheat; [2]): 0
Wheat plant response rating (wheat; [3]): 2
Wheat plant response rating (wheat; [5]): 0
Wheat plant response rating (wheat; [8]): 0
Plant response rating, Wheat (wheat; [6]): 3
Plant response rating, Wheat (wheat; [7]): 4
Plant response rating, Wild oats (wild oat; [1]): 0
Plant response rating, Wild oats (wild oat; [2]): 0
Wild oats plant response rating (wild oat; [3]): 5
Wild oats plant response rating (wild oat; [5]): 2
Wild oats plant response rating (wild oat; [8]): 6
Plant response rating, Wild oats (wild oat; [6]): 9
Plant response rating, Wild oats (wild oat; [7]): 9
Plant response rating, Rape (rape; [1]): 2
Plant response rating, Rape (rape; [2]): 5
Rape plant response rating (rape; [3]): 7
Plant response rating, Rape (rape; [4]): 9
Rape plant response rating (rape; [5]): 6
Rape plant response rating (rape; [8]): 6
Plant response rating, Rape (rape; [6]): 7
Plant response rating, Rape (rape; [7]): 9
Plant response rating, Soybean (soybean; [1]): 3
Plant response rating, Soybean (soybean; [2]): 4
Soybean plant response rating (soybean; [3]): 4
Soybean plant response rating (soybean; [5]): 0
Soybean plant response rating (soybean; [8]): 0
Plant response rating, Soybean (soybean; [6]): 0
Plant response rating, Soybean (soybean; [7]): 2
Plant response rating, Morningglory (morningglory; [1]): 1
Plant response rating, Morningglory (morningglory; [2]): 4
Morningglory plant response rating (morningglory; [3]): 4
Plant response rating, Morningglory (morningglory; [4]): 7
Morningglory plant response rating (morningglory; [5]): 0
Morningglory plant response rating (morningglory; [8]): 0
Plant response rating, Morningglory (morningglory; [6]): 0
Plant response rating, Morningglory (morningglory; [7]): 6
Plant response rating, Bedstraw (bedstraw; [1]): 5
Plant response rating, Bedstraw (bedstraw; [2]): 7
Bedstraw plant response rating (bedstraw; [3]): 9
Bedstraw plant response rating (bedstraw; [5]): 9
Bedstraw plant response rating (bedstraw; [8]): 8
Plant response rating, Bedstraw (bedstraw; [6]): 7
Plant response rating, Bedstraw (bedstraw; [7]): 9
Plant response rating, B. signalgrass (surinam grass; [1]): 0
Plant response rating, B. signalgrass (surinam grass; [2]): 0
B. signalgrass plant response rating (surinam grass; [3]): 2
Plant response rating, B. signalgrass (surinam grass; [4]): 8
B. signalgrass plant response rating (surinam grass; [5]): 4
B. signalgrass plant response rating (surinam grass; [8]): 8
Plant response rating, B. signalgrass (surinam grass; [6]): 9
Plant response rating, B. signalgrass (surinam grass; [7]): 9
Plant response rating, Redroot pigweed (pigweed; [1]): 0
Plant response rating, Redroot pigweed (pigweed; [2]): 0
Redroot pigweed plant response rating (pigweed; [3]): 3
Redroot pigweed plant response rating (pigweed; [5]): 10
Redroot pigweed plant response rating (pigweed; [8]): 10
Plant response rating, Redroot pigweed (pigweed; [6]): 10
Plant response rating, Redroot pigweed (pigweed; [7]): 10

CC(C)N(C(=O)n1oc(=O)n(CCC(=O)N(C)C)c1=O)c1ccc(F)cc1F [Compound 687]
Corn plant response rating (corn; [5]): 0
Plant response rating, Corn (corn; [8]): 0
Plant response rating, Corn (corn; [6]): 0
Blackgrass plant response rating (blackgrass; [5]): 8
Plant response rating, Blackgrass (blackgrass; [8]): 9
Plant response rating, Blackgrass (blackgrass; [6]): 9
Plant response rating, Blackgrass (blackgrass; [7]): 10
Cocklebur plant response rating (cocklebur; [5]): 0
Plant response rating, Cocklebur (cocklebur; [8]): 0
Plant response rating, Cocklebur (cocklebur; [6]): 0
Plant response rating, Cocklebur (cocklebur; [7]): 0
Plant response rating, Nutsedge (purple nutsedge; [8]): 0
Crabgrass plant response rating (crabgrass; [5]): 4
Plant response rating, Crabgrass (crabgrass; [6]): 4
Sugarbeets plant response rating (sugar beet; [5]): 4
Plant response rating, Sugarbeets (sugar beet; [8]): 5
Velvetleaf plant response rating (velvetleaf; [5]): 2
Plant response rating, Velvetleaf (velvetleaf; [8]): 5
Giant foxtail plant response rating (giant foxtail; [5]): 6
Plant response rating, Giant foxtail (giant foxtail; [8]): 6
Wheat plant response rating (wheat; [5]): 0
Plant response rating, Wheat (wheat; [8]): 6
Wild oats plant response rating (wild oat; [5]): 7
Plant response rating, Wild oats (wild oat; [8]): 9
Rape plant response rating (rape; [5]): 0
Plant response rating, Rape (rape; [8]): 5
Soybean plant response rating (soybean; [5]): 0
Plant response rating, Soybean (soybean; [8]): 0
Morningglory plant response rating (morningglory; [5]): 2
Plant response rating, Morningglory (morningglory; [8]): 3
Bedstraw plant response rating (bedstraw; [5]): 0
Plant response rating, Bedstraw (bedstraw; [8]): 0
Plant response rating, Bedstraw (bedstraw; [7]): 0
B. signalgrass plant response rating (surinam grass; [5]): 6
Plant response rating, B. signalgrass (surinam grass; [8]): 9
Plant response rating, B. signalgrass (surinam grass; [6]): 10
Plant response rating, B. signalgrass (surinam grass; [7]): 10
Redroot pigweed plant response rating (pigweed; [5]): 8
Plant response rating, Redroot pigweed (pigweed; [8]): 9

Source: patent publication US6737383B1, “Herbicidal oxadiazolidines” (priority 1999, dated 2004)
